# Measured values taken from patent publication US20240382417A1, “Compositions Comprising Guaifenesin and Eriodictyol” (SYMRISE AG, priority 2018, published 2024).
# Marks after values point to notes of the source that are not given here.
# Key:
# HGT-1 cells = assay: guaifenesin-induced acid (proton) secretion in HGT-1 cells; format: cell-based, human; conditions: for proton secretory activity (log2 transformed ratio of treated vs. untreated cells): mean ± SEM
# Description: Human gastric tumour cell line 1 (HGT-1; Laboisse C. L.; Augeron C.; Couturier-Turpin M. H.; Gespach C.; Cheret A. M.; Potet F., Characterization of a newly established human gastric cancer cell line HGT-1 bearing histamine H2-receptors, Canc. Res., 1982, 42, 1541 to 1548) is a suitable screening tool for detecting the interaction of bitter agents and bitter modulating substances (Liszt, K. I.; Hans, J.; Ley, J. P.; Kock, E.; Somoza, V., Characterization of bitter compounds via modulation of proton secretion in human gastric parietal cells in culture, J. Agric. Food Chem., 2018, 66 (10), 2295-2300.). Therefore, the effect of eriodictyol on guaifenesin-induced acid secretion in the HGT-1 cell line was determined to predict the modulation of guaifenesin-induced bitterness by eriodictyol. To this aim, HGT-1 cells were cultured under standard conditions and passaged at ca. 80% confluence. […] HGT-1 cells were pre-loaded with (acetyloxy) methyl-3-(acetyloxy)-10-(dimethylamino)-3′-oxo-spiro[7H-benzo [c]xanthene-7,1′(3H)-isobenzofuran]-ar′-carboxylate and incubated in 130 mM NaCl 130, 4.7 mM KCl, 1.3 mM CaCl2, 1.2 mM MgSO4, 1.2 mM KH2PO4, 11.7 mM glucose, 10 mM HEPES 10, 20 μM 4,4′-Diisothiocyanatostilbene-2,2′-disulfonic acid disodium and 20 μM 5-(N-Ethyl-N-isopropyl) amiloride at pH 7.4. Fluorescence recordings were performed with an excitation wavelength of 488 nm and monitoring the emission wavelengths of 580 nm and 640 nm, respectively, each with a 20 nm bandwidth. […]
# (§1) The data in Table 1 are presented as mean±SEM derived from 7 biological replicates and 14 to 21 technical replicates. Outliers were identified using the Nalimov test, statistical significance was tested one-way ANOVA with Tukey's range test for multiple comparisons and Bonferroni correction, establishing the threshold for significance at p<0.0071. Accordingly, data are marked with * (p<0.0071), ** (p<0.0014) or *** (p<0.00014). Control: untreated cells
# as §1, with “Table 2” for “Table 1”
# trained sensory panel = assay: sensory panel test of guaifenesin-induced bitterness perception (sip and spit, randomized comparison); format: in vivo, human; conditions: guaifenesin used in combination with eriodictyol; refers to Table 3
# Experimental: To verify the effect of eriodictyol on guaifenesin-induced bitterness perception, an aqueous solution of 13 g/l guaifenesin (1) was tested against an aqueous solution containing 13 g/l guaifenesin and 20 mg/l eriodictyol (2) or 100 mg/l homoeriodictyol (3). The test was conducted as a randomized comparison test in a trained sensory panel (n=20 to 30) via a sip and spit procedure. The panelists tasted both solutions in a blinded fashion and rated bitterness on a scale of 0 to 100.
# guaifenesin bitterness = conditions: 200 ppm (0.2 mg/ml) HED against 13 mg/ml guaifenesin; cited from earlier work
smiles,measurement,setting,value
"O=C1CC(c2ccc(O)c(O)c2)Oc2cc(O)cc(O)c21 [eriodictyol, (2S)-/(2R)-2-(3,4-dihydroxyphenyl)-5,7-dihydroxy-4-chromanone]",proton secretory activity (log2 transformed ratio of treated vs. untreated cells),"HGT-1 cells; 10 mM guaifenesin + 3 μM eriodictyol, timepoint 0 min",−0.3389 ± 0.0274
same,proton secretory activity (log2 transformed ratio of treated vs. untreated cells),"HGT-1 cells; 10 mM guaifenesin + 3 μM eriodictyol, timepoint 5 min",−0.3351 ± 0.0246
same,proton secretory activity (log2 transformed ratio of treated vs. untreated cells),"HGT-1 cells; 10 mM guaifenesin + 3 μM eriodictyol, timepoint 10 min",−0.2874 ± 0.0241
same,proton secretory activity (log2 transformed ratio of treated vs. untreated cells),"HGT-1 cells; 10 mM guaifenesin + 3 μM eriodictyol, timepoint 15 min",−0.2595 ± 0.0264
same,proton secretory activity (log2 transformed ratio of treated vs. untreated cells),"HGT-1 cells; 10 mM guaifenesin + 3 μM eriodictyol, timepoint 20 min",−0.2622 ± 0.0286
same,proton secretory activity (log2 transformed ratio of treated vs. untreated cells),"HGT-1 cells; 10 mM guaifenesin + 3 μM eriodictyol, timepoint 25 min",−0.3259 ± 0.0279
same,proton secretory activity (log2 transformed ratio of treated vs. untreated cells),"HGT-1 cells; 10 mM guaifenesin + 3 μM eriodictyol, timepoint 30 min",−0.3237 ± 0.0296
same,proton secretory activity (log2 transformed ratio of treated vs. untreated cells),"HGT-1 cells; 10 mM guaifenesin + 30 μM eriodictyol, timepoint 0 min",−0.2324 ± 0.0297
same,proton secretory activity (log2 transformed ratio of treated vs. untreated cells),"HGT-1 cells; 10 mM guaifenesin + 30 μM eriodictyol, timepoint 5 min",−0.2396 ± 0.0252
same,proton secretory activity (log2 transformed ratio of treated vs. untreated cells),"HGT-1 cells; 10 mM guaifenesin + 30 μM eriodictyol, timepoint 10 min",−0.1630 ± 0.0308***
same,proton secretory activity (log2 transformed ratio of treated vs. untreated cells),"HGT-1 cells; 10 mM guaifenesin + 30 μM eriodictyol, timepoint 15 min",−0.1472 ± 0.0302**
same,proton secretory activity (log2 transformed ratio of treated vs. untreated cells),"HGT-1 cells; 10 mM guaifenesin + 30 μM eriodictyol, timepoint 20 min",−0.1496 ± 0.0269**
same,proton secretory activity (log2 transformed ratio of treated vs. untreated cells),"HGT-1 cells; 10 mM guaifenesin + 30 μM eriodictyol, timepoint 25 min",−0.1478 ± 0.0283***
same,proton secretory activity (log2 transformed ratio of treated vs. untreated cells),"HGT-1 cells; 10 mM guaifenesin + 30 μM eriodictyol, timepoint 30 min",−0.1886 ± 0.0272*
same,change in proton secretory activity of HGT-1 cells compared to 10 mM guaifenesin alone,"HGT-1 cells; co-incubation of 10 mM guaifenesin with 30 μM eriodictyol, from 10 min onwards",significant decrease
same,reduction of bitterness of guaifenesin,trained sensory panel,≥ 35%
"COc1cc([C@@H]2CC(=O)c3c(O)cc(O)cc3O2)ccc1O (stereo in doubt) [homoeriodictyol, (2S)-/(2R)-5,7-Dihydroxy-2-(4-hydroxy-3-methoxyphenyl)-4-chromanone]",proton secretory activity (log2 transformed ratio of treated vs. untreated cells),"HGT-1 cells; 10 mM guaifenesin ± 3 μM homoeriodictyol, timepoint 0 min",−0.2514 ± 0.0260
same,proton secretory activity (log2 transformed ratio of treated vs. untreated cells),"HGT-1 cells; 10 mM guaifenesin ± 3 μM homoeriodictyol, timepoint 5 min",−0.1923 ± 0.0304
same,proton secretory activity (log2 transformed ratio of treated vs. untreated cells),"HGT-1 cells; 10 mM guaifenesin ± 3 μM homoeriodictyol, timepoint 10 min",−0.2547 ± 0.0320
same,proton secretory activity (log2 transformed ratio of treated vs. untreated cells),"HGT-1 cells; 10 mM guaifenesin ± 3 μM homoeriodictyol, timepoint 15 min",−0.2538 ± 0.0317
same,proton secretory activity (log2 transformed ratio of treated vs. untreated cells),"HGT-1 cells; 10 mM guaifenesin ± 3 μM homoeriodictyol, timepoint 20 min",−0.2677 ± 0.0264
same,proton secretory activity (log2 transformed ratio of treated vs. untreated cells),"HGT-1 cells; 10 mM guaifenesin ± 3 μM homoeriodictyol, timepoint 25 min",−0.2472 ± 0.0296
same,proton secretory activity (log2 transformed ratio of treated vs. untreated cells),"HGT-1 cells; 10 mM guaifenesin ± 3 μM homoeriodictyol, timepoint 30 min",−0.2493 ± 0.0300
same,proton secretory activity (log2 transformed ratio of treated vs. untreated cells),"HGT-1 cells; 10 mM guaifenesin ± 30 μM homoeriodictyol, timepoint 0 min",−0.2845 ± 0.0235
same,proton secretory activity (log2 transformed ratio of treated vs. untreated cells),"HGT-1 cells; 10 mM guaifenesin ± 30 μM homoeriodictyol, timepoint 5 min",−0.1702 ± 0.0265
same,proton secretory activity (log2 transformed ratio of treated vs. untreated cells),"HGT-1 cells; 10 mM guaifenesin ± 30 μM homoeriodictyol, timepoint 10 min",−0.1272 ± 0.0263*
same,proton secretory activity (log2 transformed ratio of treated vs. untreated cells),"HGT-1 cells; 10 mM guaifenesin ± 30 μM homoeriodictyol, timepoint 15 min",−0.1934 ± 0.0259
same,proton secretory activity (log2 transformed ratio of treated vs. untreated cells),"HGT-1 cells; 10 mM guaifenesin ± 30 μM homoeriodictyol, timepoint 20 min",−0.2282 ± 0.0260
same,proton secretory activity (log2 transformed ratio of treated vs. untreated cells),"HGT-1 cells; 10 mM guaifenesin ± 30 μM homoeriodictyol, timepoint 25 min",−0.1601 ± 0.0206
same,proton secretory activity (log2 transformed ratio of treated vs. untreated cells),"HGT-1 cells; 10 mM guaifenesin ± 30 μM homoeriodictyol, timepoint 30 min",−0.2187 ± 0.0244
same,inhibition of proton secretion compared with eriodictyol,HGT-1 cells; co-incubation of 10 mM guaifenesin with 30 μM homoeriodictyol,did not exhibit such a pronounced inhibition
same,change in proton secretion compared to 10 mM guaifenesin alone,"HGT-1 cells; co-incubation of 10 mM guaifenesin with 30 μM homoeriodictyol, only the time point at 10 min (p<0.0071)",significant decrease
same,reduction in guaifenesin bitterness,guaifenesin bitterness,about 40%
"COc1ccccc1OCC(O)CO (centres unmarked) [guaifenesin, 3-(2-methoxyphenoxy-) 1,2-propanediol]",proton secretory activity (log2 transformed ratio of treated vs. untreated cells),"HGT-1 cells; 10 mM guaifenesin alone, Table 1, timepoint 0 min",−0.3130 ± 0.0306
same,proton secretory activity (log2 transformed ratio of treated vs. untreated cells),"HGT-1 cells; 10 mM guaifenesin alone, Table 1, timepoint 5 min",−0.2720 ± 0.0225
same,proton secretory activity (log2 transformed ratio of treated vs. untreated cells),"HGT-1 cells; 10 mM guaifenesin alone, Table 1, timepoint 10 min",−0.3283 ± 0.0253
same,proton secretory activity (log2 transformed ratio of treated vs. untreated cells),"HGT-1 cells; 10 mM guaifenesin alone, Table 1, timepoint 15 min",−0.2945 ± 0.0277
same,proton secretory activity (log2 transformed ratio of treated vs. untreated cells),"HGT-1 cells; 10 mM guaifenesin alone, Table 1, timepoint 20 min",−0.2885 ± 0.0266
same,proton secretory activity (log2 transformed ratio of treated vs. untreated cells),"HGT-1 cells; 10 mM guaifenesin alone, Table 1, timepoint 25 min",−0.3135 ± 0.0260
same,proton secretory activity (log2 transformed ratio of treated vs. untreated cells),"HGT-1 cells; 10 mM guaifenesin alone, Table 1, timepoint 30 min",−0.3241 ± 0.0280
same,proton secretory activity (log2 transformed ratio of treated vs. untreated cells),"HGT-1 cells; 10 mM guaifenesin alone, Table 2, timepoint 0 min",−0.2712 ± 0.0190
same,proton secretory activity (log2 transformed ratio of treated vs. untreated cells),"HGT-1 cells; 10 mM guaifenesin alone, Table 2, timepoint 5 min",−0.2170 ± 0.0217
same,proton secretory activity (log2 transformed ratio of treated vs. untreated cells),"HGT-1 cells; 10 mM guaifenesin alone, Table 2, timepoint 10 min",−0.2543 ± 0.0268
same,proton secretory activity (log2 transformed ratio of treated vs. untreated cells),"HGT-1 cells; 10 mM guaifenesin alone, Table 2, timepoint 15 min",−0.2518 ± 0.0274
same,proton secretory activity (log2 transformed ratio of treated vs. untreated cells),"HGT-1 cells; 10 mM guaifenesin alone, Table 2, timepoint 20 min",−0.2081 ± 0.0243
same,proton secretory activity (log2 transformed ratio of treated vs. untreated cells),"HGT-1 cells; 10 mM guaifenesin alone, Table 2, timepoint 25 min",−0.2454 ± 0.0265
same,proton secretory activity (log2 transformed ratio of treated vs. untreated cells),"HGT-1 cells; 10 mM guaifenesin alone, Table 2, timepoint 30 min",−0.2730 ± 0.0241
